The source of these data is patent US12703729B2, “GIP agonist compounds and methods” (Zealand Pharma A/S, priority 2014, dated 2026).

In general, bioavailability refers to dose-corrected exposure relative to a reference, in per cent. Read a low bioavailability as little systemic uptake. The half-life is the time in which the quantity being followed falls by half. Usually Tmax stands for the time from dosing to the highest level. In general, EC50 refers to the concentration that produces a half-maximal response. Low readings indicate greater potency, high ones weaker potency.

One data set in a line: in vivo. The conditions noted are these: male, C57BL/6J, mouse; for bioavailability: Bioavailability s.c.; for half-life: 200 nmol/kg.
The next data set deals with T1, human GIP R (Homo sapiens, UniProt P48546).
T1 sequence (P48546 22-466): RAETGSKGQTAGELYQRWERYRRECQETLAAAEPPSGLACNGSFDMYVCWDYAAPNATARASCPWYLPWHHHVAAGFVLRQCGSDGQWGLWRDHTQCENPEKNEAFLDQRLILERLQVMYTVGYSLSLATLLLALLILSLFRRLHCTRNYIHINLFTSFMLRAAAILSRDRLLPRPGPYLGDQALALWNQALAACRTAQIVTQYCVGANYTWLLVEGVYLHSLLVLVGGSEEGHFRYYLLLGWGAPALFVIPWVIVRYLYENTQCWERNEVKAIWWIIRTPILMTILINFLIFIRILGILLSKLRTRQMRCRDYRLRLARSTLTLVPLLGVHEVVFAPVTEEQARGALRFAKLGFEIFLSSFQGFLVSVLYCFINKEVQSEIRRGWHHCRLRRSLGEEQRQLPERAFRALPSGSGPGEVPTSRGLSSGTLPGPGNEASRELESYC
The data set can be described thus: cell-based.

For data set [1], the target named is T2, human GIP receptor (GIP R) (Homo sapiens, UniProt P48546).
T2 sequence (P48546 22-466): T1 sequence (P48546 22-466)
The data set can be described thus: Activity assay at human GIP receptor, cAMP induction (AlphaScreen), Example 3.

The target in data set [2] is human GLP-1 receptor (GLP-1R) (Homo sapiens, UniProt P43220). The data set can be described thus: Activity assay at human GLP-1 receptor, cAMP induction (AlphaScreen), Example 3.
Where [3] appears, read: iv, Terminal elimination half-life T½ i.v.
The mark [4] stands for this setting: sc, Terminal elimination half-life T½ s.c.

Starred links: 1 amine or outer side, 2 acyl side, 3 side chain; linkers in the order of their positions; H or OH if unused. Non-standard residues stand in square brackets, D forms with d. Residues, ends and D or L forms follow the SMILES beside them. Groups on a side chain read outwards from the residue. *: point of attachment. X1 = O=C(O)CCCCCCCCCCCCCCCCCCC(=O)N1CCN(CC(=O)*)CC1; C20 diacid = O=C(O)CCCCCCCCCCCCCCCCCCC(=O)*; γGlu = O=C(O)[C@H](CCC(=O)[*:2])N[*:1]; AEEA = NCCOCCOCC(=O)O; Aib = CC(C)(N)C(=O)O

Sequence of human GLP-1 receptor (GLP-1R) (P43220 24-463): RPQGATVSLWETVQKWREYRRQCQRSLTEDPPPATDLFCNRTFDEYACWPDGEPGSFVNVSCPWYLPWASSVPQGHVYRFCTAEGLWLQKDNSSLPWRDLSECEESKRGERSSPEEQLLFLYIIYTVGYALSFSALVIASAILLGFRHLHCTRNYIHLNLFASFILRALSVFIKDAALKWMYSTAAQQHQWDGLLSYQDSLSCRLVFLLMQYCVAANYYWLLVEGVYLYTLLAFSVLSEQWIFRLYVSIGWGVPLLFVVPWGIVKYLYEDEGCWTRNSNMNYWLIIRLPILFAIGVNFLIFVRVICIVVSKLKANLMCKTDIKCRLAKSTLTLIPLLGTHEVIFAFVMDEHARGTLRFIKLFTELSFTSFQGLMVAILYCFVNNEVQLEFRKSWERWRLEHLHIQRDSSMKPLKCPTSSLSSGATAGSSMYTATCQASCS

In the data set “in vivo”, `CC[C@H](C)[C@H](NC(=O)[C@H](Cc1ccccc1)NC(=O)[C@H](C)NC(=O)[C@H](CCCNC(=N)N)NC(=O)[C@H](CCC(N)=O)NC(=O)[C@H](C)NC(=O)[C@H](CCCCNC(=O)COCCOCCNC(=O)COCCOCCNC(=O)CC[C@H](NC(=O)CCCCCCCCCCCCCCCCCCC(=O)O)C(=O)O)NC(=O)[C@H](CCCCN)NC(=O)[C@H](CC(=O)O)NC(=O)[C@H](CC(C)C)NC(=O)[C@H](CCC(=O)O)NC(=O)[C@@H](NC(=O)[C@H](CO)NC(=O)[C@H](Cc1ccc(O)cc1)NC(=O)[C@H](CC(=O)O)NC(=O)[C@H](CO)NC(=O)[C@@H](NC(=O)[C@H](Cc1ccccc1)NC(=O)[C@@H](NC(=O)CNC(=O)[C@H](CCC(=O)O)NC(=O)C(C)(C)NC(=O)[C@@H](N)Cc1ccc(O)cc1)[C@@H](C)O)[C@@H](C)CC)[C@@H](C)CC)C(=O)N[C@@H](CCC(=O)O)C(=O)N[C@@H](Cc1c[nH]c2ccccc12)C(=O)N[C@@H](CC(C)C)C(=O)N[C@@H](CC(C)C)C(=O)N[C@@H](C)C(=O)N[C@@H](CCC(N)=O)C(=O)NCC(=O)N1CCC[C@H]1C(=O)N[C@@H](CO)C(=O)N[C@@H](CO)C(=O)NCC(=O)N[C@@H](C)C(=O)N1CCC[C@H]1C(=O)N1CCC[C@H]1C(=O)N1CCC[C@H]1C(=O)N[C@@H](CO)C(N)=O` [Compound 18] (H-Y[Aib]EGTFISDYSIELDKK([AEEA-AEEA-γGlu-C20 diacid])AQRAFIEWLLAQGPSSGAPPPS-NH2) came in with a bioavailability of 78%. Moreover, the results for the half-life in the data set “in vivo” (setting [3]) and in the data set “in vivo” (setting [4]) were 17.6 h and 15.1 h, respectively. Moreover, in “in vivo” (sc), the time to peak (Tmax) came out at 4 h. In addition, the 50% effective concentration (EC50) on human GIP R is 6 pM; in data set [1], 7 pM; in data set [2], more than 3000 pM.

`CC[C@H](C)[C@H](NC(=O)[C@H](CO)NC(=O)[C@H](Cc1ccc(O)cc1)NC(=O)[C@H](CC(=O)O)NC(=O)[C@H](CO)NC(=O)[C@@H](NC(=O)[C@H](Cc1ccccc1)NC(=O)[C@@H](NC(=O)CNC(=O)[C@H](CCC(=O)O)NC(=O)C(C)(C)NC(=O)[C@@H](N)Cc1ccc(O)cc1)[C@@H](C)O)[C@@H](C)CC)C(=O)N[C@@H](CCC(=O)O)C(=O)N[C@@H](CC(C)C)C(=O)N[C@@H](CC(=O)O)C(=O)N[C@@H](CCCCN)C(=O)N[C@@H](CCCCNC(=O)COCCOCCNC(=O)COCCOCCNC(=O)CN1CCN(C(=O)CCCCCCCCCCCCCCCCCCC(=O)O)CC1)C(=O)N[C@@H](C)C(=O)N[C@@H](CCC(N)=O)C(=O)N[C@@H](CCCCN)C(=O)N[C@@H](CCC(=O)O)C(=O)N[C@@H](Cc1ccccc1)C(=O)N[C@H](C(=O)N[C@@H](CCC(=O)O)C(=O)N[C@@H](Cc1c[nH]c2ccccc12)C(=O)N[C@@H](CC(C)C)C(=O)N[C@@H](CC(C)C)C(=O)N[C@@H](C)C(=O)N[C@@H](C)C(=O)NCC(=O)N1CCC[C@H]1C(=O)N[C@@H](CO)C(=O)N[C@@H](CO)C(=O)NCC(=O)N[C@@H](C)C(=O)N1CCC[C@H]1C(=O)N1CCC[C@H]1C(=O)N1CCC[C@H]1C(=O)N[C@@H](CO)C(N)=O)C(C)C` [Compound 21] (H-Y[Aib]EGTFISDYSIELDKK([AEEA-AEEA-X1])AQKEFVEWLLAAGPSSGAPPPS-NH2): the bioavailability in “in vivo” amounted to 67%. The half-life in the data set “in vivo” (setting [3]) was 24.8 h; in the data set “in vivo” (setting [4]), 21 h. In the data set “in vivo” (sc), the time of peak concentration (Tmax) amounted to 8 h. Besides, the concentration for a half-maximal effect (EC50) is 7 pM at human GIP R, 6 pM in data set [1] and more than 3000 pM in data set [2].

For the compound `CC[C@H](C)[C@H](NC(=O)[C@H](Cc1ccccc1)NC(=O)[C@H](CC(=O)O)NC(=O)[C@H](CCC(N)=O)NC(=O)[C@H](C)NC(=O)[C@H](C)NC(=O)[C@H](CCCCNC(=O)COCCOCCNC(=O)COCCOCCNC(=O)CN1CCN(C(=O)CCCCCCCCCCCCCCCCCCC(=O)O)CC1)NC(=O)[C@H](CCCCN)NC(=O)[C@H](CC(=O)O)NC(=O)[C@H](CC(C)C)NC(=O)[C@H](CCC(=O)O)NC(=O)[C@@H](NC(=O)[C@H](CO)NC(=O)[C@H](Cc1ccc(O)cc1)NC(=O)[C@H](CC(=O)O)NC(=O)[C@H](CO)NC(=O)[C@@H](NC(=O)[C@H](Cc1ccccc1)NC(=O)[C@@H](NC(=O)CNC(=O)[C@H](CCC(=O)O)NC(=O)C(C)(C)NC(=O)[C@@H](N)Cc1ccc(O)cc1)[C@@H](C)O)[C@@H](C)CC)[C@@H](C)CC)C(=O)N[C@@H](CCC(=O)O)C(=O)N[C@@H](Cc1c[nH]c2ccccc12)C(=O)N[C@@H](CC(C)C)C(=O)N[C@@H](CC(C)C)C(=O)N[C@@H](C)C(=O)NCC(=O)N1CCC[C@H]1C(=O)N[C@@H](CO)C(=O)N[C@@H](CO)C(=O)NCC(=O)N[C@@H](C)C(=O)N1CCC[C@H]1C(=O)N1CCC[C@H]1C(=O)N1CCC[C@H]1C(=O)N[C@@H](CO)C(N)=O` [Compound 33] (H-Y[Aib]EGTFISDYSIELDKK([AEEA-AEEA-X1])AAQDFIEWLLAGPSSGAPPPS-NH2), the bioavailability in the data set “in vivo” is 78%. Also, the half-life in “in vivo” (setting [3]) is 21.7 h; in the data set “in vivo” (setting [4]), 18.7 h. For the same compound, the Tmax in “in vivo” (sc) amounted to 8 h. For the same compound, the half-maximal effective concentration (EC50) at human GIP R is 14 pM; in data set [1], 20 pM; in data set [2], more than 10000 pM.

On to `CC[C@H](C)[C@H](NC(=O)[C@H](CCCCN)NC(=O)[C@H](CC(=O)O)NC(=O)[C@H](CC(C)C)NC(=O)[C@H](CCC(=O)O)NC(=O)[C@H](CCCCNC(=O)COCCOCCNC(=O)COCCOCCNC(=O)CC[C@H](NC(=O)CCCCCCCCCCCCCCCCCCC(=O)O)C(=O)O)NC(=O)[C@H](CO)NC(=O)[C@H](Cc1ccc(O)cc1)NC(=O)[C@H](CC(=O)O)NC(=O)[C@H](CO)NC(=O)[C@@H](NC(=O)[C@H](Cc1ccccc1)NC(=O)[C@@H](NC(=O)CNC(=O)[C@H](CCC(=O)O)NC(=O)C(C)(C)NC(=O)[C@@H](N)Cc1ccc(O)cc1)[C@@H](C)O)[C@@H](C)CC)C(=O)N[C@@H](C)C(=O)N[C@@H](CCC(N)=O)C(=O)N[C@@H](CCCNC(=N)N)C(=O)N[C@@H](C)C(=O)N[C@@H](Cc1ccccc1)C(=O)N[C@H](C(=O)N[C@@H](CCC(=O)O)C(=O)N[C@@H](Cc1c[nH]c2ccccc12)C(=O)N[C@@H](CC(C)C)C(=O)N[C@@H](CC(C)C)C(=O)N[C@@H](C)C(=O)N[C@@H](CCC(N)=O)C(=O)NCC(=O)N1CCC[C@H]1C(=O)N[C@@H](CO)C(=O)N[C@@H](CO)C(=O)NCC(=O)N[C@@H](C)C(=O)N1CCC[C@H]1C(=O)N1CCC[C@H]1C(=O)N1CCC[C@H]1C(=O)N[C@@H](CO)C(N)=O)[C@@H](C)CC` [Compound 35] (H-Y[Aib]EGTFISDYSK([AEEA-AEEA-γGlu-C20 diacid])ELDKIAQRAFIEWLLAQGPSSGAPPPS-NH2), for which, in “in vivo”, the bioavailability was 73%. Further, the half-life in “in vivo” (setting [3]) and in the data set “in vivo” (setting [4]) was 14.5 h in each case. Further, the time of peak concentration (Tmax) in “in vivo” (sc) was found to be 4 h. The half-maximal effective concentration (EC50) was 8 pM on human GIP R, 11 pM in data set [1] and more than 3000 pM in data set [2].

For the compound `CC[C@H](C)[C@H](NC(=O)[C@H](Cc1ccccc1)NC(=O)[C@H](C)NC(=O)[C@H](CCC(N)=O)NC(=O)[C@H](C)NC(=O)[C@H](C)NC(=O)[C@H](CCCCNC(=O)COCCOCCNC(=O)COCCOCCNC(=O)CN1CCN(C(=O)CCCCCCCCCCCCCCCCCCC(=O)O)CC1)NC(=O)[C@H](CCCCN)NC(=O)[C@H](CC(=O)O)NC(=O)[C@H](CC(C)C)NC(=O)[C@H](CCC(=O)O)NC(=O)[C@@H](NC(=O)[C@H](CO)NC(=O)[C@H](Cc1ccc(O)cc1)NC(=O)[C@H](CC(=O)O)NC(=O)[C@H](CO)NC(=O)[C@@H](NC(=O)[C@H](Cc1ccccc1)NC(=O)[C@@H](NC(=O)CNC(=O)[C@H](CCC(=O)O)NC(=O)C(C)(C)NC(=O)[C@@H](N)Cc1ccc(O)cc1)[C@@H](C)O)[C@@H](C)CC)[C@@H](C)CC)C(=O)N[C@@H](CCC(=O)O)C(=O)N[C@@H](Cc1c[nH]c2ccccc12)C(=O)N[C@@H](CC(C)C)C(=O)N[C@@H](CC(C)C)C(=O)N[C@@H](C)C(=O)N[C@@H](CCC(N)=O)C(=O)NCC(=O)N1CCC[C@H]1C(=O)N[C@@H](CO)C(=O)N[C@@H](CO)C(=O)NCC(=O)N[C@@H](C)C(=O)N1CCC[C@H]1C(=O)N1CCC[C@H]1C(=O)N1CCC[C@H]1C(=O)N[C@@H](CO)C(N)=O` [Compound 41], the bioavailability in “in vivo” was found to be 70%. Moreover, the figures for the half-life in “in vivo” (setting [3]) and in “in vivo” (setting [4]) were 17.6 h and 16.5 h, respectively. Moreover, the time of peak concentration (Tmax) in the data set “in vivo” (sc) was 8 h. For the same compound, the values for the concentration giving a half-maximal response (EC50) (on human GIP R; in data set [1]; in data set [2]) were 14 pM, 10 pM and more than 10000 pM, respectively.
